According to patent US11708348B2, “Protease inhibitors for treatment of coronavirus infections” (The Scripps Research Institute, priority 2021, dated 2023):
Like-named read-outs stand apart in the source and are kept apart here.

System: SARS-CoV-2 strain USA-WA1/2020
Test: microbe, parasite or virus in culture
Format: cell-based
Settings: Severe acute respiratory syndrome coronavirus 2, HeLa-ACE2, 24 h, HeLa-ACE2 cells, SARS-CoV-2 infection, 24 h, read-out: EC50, uM (Hela)

Row | Compound | EC50 | EC50 (class symbols)
1 | CC(C)C[C@@H](N)C(=O)N1CC2(CC2)C[C@H]1C(=O)N[C@@H](C[C@@H]1CCNC1=O)C(=O)COC(F)(F)F [Compound 644, (S)-5-(D-leucyl)-N-((S)-3-oxo-1-((S)-2-oxopyrrolidin-3-yl)-4-(trifluoromethoxy)butan-2-yl)-5-azaspiro[2.4]heptane-6-carboxamide] | 0.2 to 0.5 µM | –
2 | CC(C)(NC(=O)C(=O)N[C@@H](CC1CCCCC1)C(=O)N[C@@H](C[C@@H]1CCNC1=O)C(=O)COC(F)(F)F)C(F)(F)F [Compound 212, N1-((S)-3-cyclohexyl-1-oxo-1-(((S)-3-oxo-1-((S)-2-oxopyrrolidin-3-yl)-4-(trifluoromethoxy)butan-2-yl)amino)propan-2-yl)-N2-(1,1,1-trifluoro-2-methylpropan-2-yl)oxalamide] | – | < 0.05 µM
3 | CC(C)C[C@H](NC(=O)C(=O)NC1CCCC1)C(=O)N[C@@H](C[C@@H]1CCNC1=O)C(=O)COc1c(F)c(F)cc(F)c1F [Compound 102, N1-cyclopentyl-N2-((S)-4-methyl-1-oxo-1-(((S)-3-oxo-1-((S)-2-oxopyrrolidin-3-yl)-4-(2,3,5,6-tetrafluorophenoxy)butan-2-yl)amino)pentan-2-yl)oxalamide] | – | 0.05 to 0.2 µM
4 | O=C(N[C@@H](CC1CC1)C(=O)N[C@@H](C[C@@H]1CCNC1=O)C(=O)COC(F)(F)F)c1nc2ccccc2o1 [Compound 201, N-((S)-3-cyclopropyl-1-oxo-1-(((S)-3-oxo-1-((S)-2-oxopyrrolidin-3-yl)-4-(trifluoromethoxy)butan-2-yl)amino)propan-2-yl)benzo[d]oxazole-2-carboxamide] | – | < 0.05 µM
5 | O=C(N[C@@H](CC1CC1)C(=O)N[C@@H](C[C@@H]1CCNC1=O)C(=O)COC(F)(F)F)c1nnc(-c2ccc(F)cc2)o1 [Compound 184, N-((S)-3-cyclopropyl-1-oxo-1-(((S)-3-oxo-1-((S)-2-oxopyrrolidin-3-yl)-4-(trifluoromethoxy)butan-2-yl)amino)propan-2-yl)-5-(4-fluorophenyl)-1,3,4-oxadiazole-2-carboxamide] | – | 0.05 to 0.2 µM
6 | CC(C)(C)C(=O)N1CC2(CC2)C[C@H]1C(=O)N[C@@H](C[C@@H]1CCNC1=O)C(=O)COC(F)(F)F [Compound 665, (S)-N-((S)-3-oxo-1-((S)-2-oxopyrrolidin-3-yl)-4-(trifluoromethoxy)butan-2-yl)-5-pivaloyl-5-azaspiro[2.4]heptane-6-carboxamide] | 0.05 to 0.2 µM | –
7 | COc1cccc2[nH]c(C(=O)N[C@@H](CC(C)C)C(=O)N[C@@H](C[C@@H]3CCNC3=O)C(=O)COc3c(F)c(F)cc(F)c3F)cc12 [Compound 1, 4-methoxy-N-((S)-4-methyl-1-oxo-1-(((S)-3-oxo-1-((S)-2-oxopyrrolidin-3-yl)-4-(2,3,5,6-tetrafluorophenoxy)butan-2-yl)amino)pentan-2-yl)-1H-indole-2-carboxamide] | – | 0.05 to 0.2 µM
8 | CC(C)C[C@H](NC(=O)/C=C/c1ccccc1)C(=O)N[C@@H](C[C@@H]1CCNC1=O)C(=O)COc1c(F)c(F)cc(F)c1F [Compound 66, (S)-2-cinnamamido-4-methyl-N-((S)-3-oxo-1-((S)-2-oxopyrrolidin-3-yl)-4-(2,3,5,6-tetrafluorophenoxy)butan-2-yl)pentanamide] | – | 0.05 to 0.2 µM
9 | CC(C)C[C@@H](O)C(=O)N1C[C@@H]2CCC[C@@H]2[C@H]1C(=O)N[C@@H](C[C@@H]1CCNC1=O)C(=O)COC(F)(F)F [Compound 363, (1S,3aR,6aS)-2-((R)-2-hydroxy-4-methylpentanoyl)-N-((S)-3-oxo-1-((S)-2-oxopyrrolidin-3-yl)-4-(trifluoromethoxy)butan-2-yl)octahydrocyclo-penta[c]pyrrole-1-carboxamide] | – | < 0.05 µM
10 | O=C(Nc1cccc(Cl)c1)C(=O)N1CC2(CC2)C[C@H]1C(=O)N[C@@H](C[C@@H]1CCNC1=O)C(=O)COC(F)(F)F [Compound 607, (S)-5-(2-((3-chlorophenyl)amino)-2-oxoacetyl)-N-((S)-3-oxo-1-((S)-2-oxopyrrolidin-3-yl)-4-(trifluoromethoxy)butan-2-yl)-5-azaspiro[2.4]heptane-6-carboxamide] | < 0.05 µM | –
